Here are results for one molecule from patent US12643899B2, “Antiviral agents, uses thereof and methods for their preparation” (The University of British Columbia, priority 2020, dated 2026).

Data set [1] in a line: MTS cytotoxicity assay in U87 MG cells. The class given is cell-based. The conditions noted are these: human, U87 MG cells (human brain). Here is the method: An MTS assay was performed to determine the cytotoxicity concentration 50% (CC50) of cladoniamide A (CA) in human A549 cells, a cell line from human lung carcinoma. Various concentrations of CA were added to cultured A549 cells and incubated (37° C., 5% CO2) for 48 h. Cell viability was then measured by an MTS assay kit (CellTiter 96™ Aqueous One Solution cell proliferation assay, Promega) according to the manufacturer's instructions. Curve fitting was performed in Igor Pro (WaveMetrics) using a hyperbolic fit algorithm (FIG. 1). The CC50 of CA in A549 cells was determined to be 54±5 μM. An MTS assay was also performed to determine the CC50 of CA in human U87 MG cells, a cell line from human brain. Various concentrations of CA were added to cultured U87 MG cells and incubated (37° C., 5% CO2) for 48 h. Cell viability was then measured by an MTS assay kit (CellTiter 96 Aqueous One Solution cell proliferation assay, Promega) according to the manufacturer's instructions. Curve fitting was performed in Igor Pro (WaveMetrics) using a hyperbolic fit algorithm (FIG. 2).

The next data set relates to DENV-3. Kind of data set: DENV-3 intracellular dsRNA (Cellomics) in A549 cells. The class given is cell-based, dengue virus. Here is the method: Error bars represent SD among 3 biological replicates. Cultured A549 cells were treated with the indicated concentrations of CA (1=Mock, 2=0 M, 3=1 μM, 4=5 M, 5=10 M, 6=20 µM) or PF-429242 (7=15 M) for 1 h before being washed with PBS and infected with DENV-2, DENV-3, or DENV-4 at MOI 1.0 for 48 h. Cells were labeled for viral dsRNA with […] then imaged and quantified using the Cellomics ArrayScan™ VTI High Content Screening system.
Viruses. ZIKV: ZIKV strain PRVABC59 (Puerto Rico/2015) (ATCC #VR-1843) was used in these studies, specifically three separate stocks generated in Vero E6 cells with titres of 1.35×10^8 pfu/mL, 1.0×10^7 pfu/mL, and 2.9×10^6 pfu/mL respectively. DENV strains: DENV-2 strain NGC, DENV-3 strain H-87, and DENV-4 strain H-241 were kindly provided by National Microbiology Laboratory, Winnipeg, MB, Canada.
A549 cells were seeded onto Corning tissue culture treated 96 well plates and incubated at 37 degrees Celsius and 5% CO2 for 24 h. CA was diluted in MEM complete media to concentrations of 1 μM, 5 μM, 10 μM, 20 μM, including a 0 μM condition. Diluted CA was added to each well and cells were incubated at 37 degrees Celsius and 5% CO2 for 1 h. After 1 h, cells were washed once with PBS to remove CA and were then infected with DENV-2, -3 or -4 at an MOI of 1. […] Labeled 96 well plates were imaged and quantified using the Cellomics ArrayScan VTI. […]

In general, CC50 refers to the concentration that lowers cell viability or growth by half. Low readings indicate harm at low concentration, high ones better tolerance by the cells. The term IC50 denotes the point on the concentration scale where inhibition reaches its midpoint. A high value points to weaker potency in that assay. For `COc1c2n(c3ccccc13)[C@]1(O)C(=O)N(C)C(=O)[C@]1(O)c1c-2[nH]c2ccc(Cl)cc12` [CA, (11S,15R)-7-chloro-11,15-dihydroxy-23-methoxy-13-methyl-3,13,16-triazahexacyclo[14.7.0.0^2,10.0^4,9.0^11,15.0^17,22]tricosa-1(23),2(10),4(9),5,7,17,19,21-octaene-12,14-dione], in data set [1], the CC50 at 48 h was determined as 42 ± 12 µM. Besides, the “activity against Dengue virus 3 in vitro” value with DENV-3 (1-20 μM, FIG. 8 middle plots) is recorded as “good activity”. The IC50 in the data set with DENV-3 (Dengue virus, DENV3, DENV-3, intracellular dsRNA (Cellomics)) is 1.5 µM.
